Assay [1] has as its system hippocampal neurons from a Sprague-Dawley (SD) rat fetus. The experiment in a line: Effect of HDAC6-specific inhibitor on axonal transport of mitochondria in amyloid-beta treated neurons. Type of assay: cell-based. The following applies: transport velocity of mitochondria in neuronal axon after normalization; vehicle = 100%, amyloid beta treatment group = 0%; compound treatment for three hours. An outline of the steps:
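Rat E17-18 hippocampal neurons exposed to amyloid-beta fragments […]; after 24 h (day 8 in vitro) compound added for 3 h, mitochondria stained with MitoTracker Red CMXRos. Confocal imaging every 1 s for 1 min gave per-mitochondrion velocity, normalized vehicle = 100%, amyloid-beta = 0%.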

Assay [2] has as its target T1, human recombinant HDAC6 (Homo sapiens, UniProt Q9UBN7).
T1 construct: purchased Calbiochem Inc. 382180
T1 sequence (Q9UBN7 1-1215): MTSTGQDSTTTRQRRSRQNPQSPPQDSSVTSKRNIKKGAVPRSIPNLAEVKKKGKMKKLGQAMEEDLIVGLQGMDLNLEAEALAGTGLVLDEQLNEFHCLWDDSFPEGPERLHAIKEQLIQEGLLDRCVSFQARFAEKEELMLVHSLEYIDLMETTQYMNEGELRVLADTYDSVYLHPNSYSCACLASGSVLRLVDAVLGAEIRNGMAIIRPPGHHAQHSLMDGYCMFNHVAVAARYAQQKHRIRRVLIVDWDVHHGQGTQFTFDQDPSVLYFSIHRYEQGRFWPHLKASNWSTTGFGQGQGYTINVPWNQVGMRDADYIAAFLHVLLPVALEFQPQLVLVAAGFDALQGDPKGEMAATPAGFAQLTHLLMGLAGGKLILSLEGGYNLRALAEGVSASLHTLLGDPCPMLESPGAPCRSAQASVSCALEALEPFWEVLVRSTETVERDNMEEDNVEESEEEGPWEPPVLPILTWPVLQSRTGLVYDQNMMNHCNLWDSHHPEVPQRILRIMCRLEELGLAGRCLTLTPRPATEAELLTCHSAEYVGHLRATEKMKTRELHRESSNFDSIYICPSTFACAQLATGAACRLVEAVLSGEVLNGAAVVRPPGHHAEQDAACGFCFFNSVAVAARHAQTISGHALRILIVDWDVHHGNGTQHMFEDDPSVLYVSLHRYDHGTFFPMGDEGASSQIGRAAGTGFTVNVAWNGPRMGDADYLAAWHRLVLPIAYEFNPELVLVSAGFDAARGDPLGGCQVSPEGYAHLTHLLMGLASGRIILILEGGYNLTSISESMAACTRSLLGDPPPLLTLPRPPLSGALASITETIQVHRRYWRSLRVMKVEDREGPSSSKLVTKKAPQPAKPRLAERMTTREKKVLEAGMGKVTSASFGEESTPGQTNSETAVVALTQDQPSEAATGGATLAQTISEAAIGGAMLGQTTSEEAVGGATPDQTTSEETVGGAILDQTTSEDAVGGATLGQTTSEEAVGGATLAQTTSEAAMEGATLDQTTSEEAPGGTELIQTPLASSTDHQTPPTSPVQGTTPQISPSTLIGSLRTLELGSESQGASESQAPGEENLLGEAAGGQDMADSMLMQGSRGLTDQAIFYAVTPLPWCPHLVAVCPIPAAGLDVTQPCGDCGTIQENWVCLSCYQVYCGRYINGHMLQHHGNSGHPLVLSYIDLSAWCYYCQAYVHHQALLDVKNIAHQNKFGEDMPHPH
As to the kind of experiment: HDAC6 enzyme activity inhibition (HDAC Fluorimetric Drug Discovery Kit). The conditions noted are these: for HDAC6 selectivity (fold): HDAC1 IC50 / HDAC6 IC50; for IC50: human recombinant HDAC6, IC50 calculated with GraphPad Prism. The format is biochemical. An outline of the steps: (§1)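 Fluorimetric deacetylase read-out. 5-fold compound dilutions; […] enzyme, 10 μM substrate; 30° C, 60 min; developer 30 min.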

Assay [3] has as its target T2, human recombinant HDAC1 (Homo sapiens, UniProt Q13547).
T2 construct: purchased Enzo Life Science, Inc. BML-SE456
The experiment in a line: HDAC1 enzyme activity inhibition (HDAC Fluorimetric Drug Discovery Kit). Type of assay: biochemical. The following applies: human recombinant HDAC1; IC50 calculated with GraphPad Prism; read-out: HDAC1. An outline of the steps: as §1

T2 sequence (Q13547 whole entry): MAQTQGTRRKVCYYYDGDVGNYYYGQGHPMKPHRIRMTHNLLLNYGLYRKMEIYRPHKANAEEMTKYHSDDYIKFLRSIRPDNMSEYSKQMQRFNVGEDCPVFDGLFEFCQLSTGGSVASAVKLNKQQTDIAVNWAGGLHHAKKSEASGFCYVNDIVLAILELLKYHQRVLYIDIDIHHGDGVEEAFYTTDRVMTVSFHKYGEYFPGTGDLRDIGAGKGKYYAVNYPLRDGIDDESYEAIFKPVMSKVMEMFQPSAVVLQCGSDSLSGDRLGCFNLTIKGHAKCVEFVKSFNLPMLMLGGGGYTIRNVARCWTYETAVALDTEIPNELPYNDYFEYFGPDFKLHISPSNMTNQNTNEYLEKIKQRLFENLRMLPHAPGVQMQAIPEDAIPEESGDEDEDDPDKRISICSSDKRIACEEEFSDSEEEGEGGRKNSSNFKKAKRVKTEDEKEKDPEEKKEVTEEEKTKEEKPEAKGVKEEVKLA

Regarding `CN(C)Cc1c[nH]c2cc(-c3cn(Cc4ccc(-c5nnc(C(F)F)o5)cn4)nn3)ccc12` [Compound 3962, 1-(6-(1-((5-(5-(difluoromethyl)-1,3,4-oxadiazol-2-yl)pyridin-2-yl)methyl)-1H-1,2,3-triazol-4-yl)-1H-indol-3-yl)-N,N-dimethylmethanamine], in assay [1], the “Velocity distribution (%)” value is “*** (***, >100%)”. Also, in assay [2], the “HDAC6 selectivity (fold)” value stood at 4629 fold and the IC50 is 10.8 nM. In assay [3], the IC50 is over 50 µM.
Turning to `CN1CCN(Cc2c[nH]c3cc(-c4cn(Cc5ccc(-c6nnc(C(F)F)o6)cn5)nn4)ccc23)CC1` [Compound 3986, 2-(difluoromethyl)-5-(6-((4-(3-((4-methylpiperazin-1-yl)methyl)-1H-indol-6-yl)-1H-1,2,3-triazol-1-yl)methyl)pyridin-3-yl)-1,3,4-oxadiazole], the “Velocity distribution (%)” value in assay [1] is given as “*** (***, >100%)”. Moreover, the “HDAC6 selectivity (fold)” value in assay [2] worked out at 6756 fold. In addition, the figures for the IC50 in assay [2] and in assay [3] were 7.4 nM and over 50 µM, respectively.
On to `CC(C)(F)C(=O)Nc1cccc(-c2cn(Cc3ccc(-c4nnc(C(F)F)o4)cn3)nn2)c1` [Compound 3987, N-(3-(1-((5-(5-(difluoromethyl)-1,3,4-oxadiazol-2-yl)pyridin-2-yl)methyl)-1H-1,2,3-triazol-4-yl)phenyl)-2-fluoro-2-methylpropanamide], for which, in assay [1], the “Velocity distribution (%)” value is recorded as “* (*, 0%˜50%)”. For the same compound, in assay [2], the “HDAC6 selectivity (fold)” value was determined as 5494 fold and the IC50 is 9.1 nM. In addition, the IC50 in assay [3] is over 50 µM.
Consider `CC(=O)N1CCN(c2cccc(-c3cn(Cc4ccc(-c5nnc(C(F)F)o5)cn4)nn3)c2)CC1` [Compound 3990, 1-(4-(3-(1-((5-(5-(difluoromethyl)-1,3,4-oxadiazol-2-yl)pyridin-2-yl)methyl)-1H-1,2,3-triazol-4-yl)phenyl)piperazin-1-yl)ethan-1-one], for which the “Velocity distribution (%)” value in assay [1] was “** (**, 50%˜100%)”. Besides, in assay [2], the “HDAC6 selectivity (fold)” value worked out at 2631 fold and the IC50 was 19 nM. The IC50 in assay [3] was over 50 µM.
As to `CCC(=O)N1CCN(c2cccc(-c3cn(Cc4ccc(-c5nnc(C(F)F)o5)cn4)nn3)c2)CC1` [Compound 3991], in assay [1], the “Velocity distribution (%)” value is on record as “** (**, 50%˜100%)”. Besides, in assay [2], the “HDAC6 selectivity (fold)” value turned out to be 1773 fold and the IC50 was 28.2 nM. Moreover, the IC50 in assay [3] was over 50 µM.
For the compound `CN1CCC(c2cccc(-c3cn(Cc4ccc(-c5nnc(C(F)F)o5)cn4)nn3)c2)CC1` [Compound 4010, 2-(difluoromethyl)-5-(6-((4-(3-(1-methylpiperidin-4-yl)phenyl)-1H-1,2,3-triazol-1-yl)methyl)pyridin-3-yl)-1,3,4-oxadiazole], the “Velocity distribution (%)” value in assay [1] is reported as “*** (***, >100%)”. In addition, in assay [2], the “HDAC6 selectivity (fold)” value came out at 2369 fold and the IC50 was 21.1 nM. Also, the IC50 in assay [3] is over 50 µM.
In the case of `CC(C)N1CCC(c2cccc(-c3cn(Cc4ccc(-c5nnc(C(F)F)o5)cn4)nn3)c2)CC1` [Compound 4012, 2-(difluoromethyl)-5-(6-((4-(3-(1-isopropylpiperidin-4-yl)phenyl)-1H-1,2,3-triazol-1-yl)methyl)pyridin-3-yl)-1,3,4-oxadiazole], the “Velocity distribution (%)” value in assay [1] is “*** (***, >100%)”. For the same compound, in assay [2], the “HDAC6 selectivity (fold)” value is listed as 2358 fold and the IC50 is 21.2 nM. Moreover, the IC50 in assay [3] was over 50 µM.
For the compound `FC(F)c1nnc(-c2ccc(Cn3cc(-c4cccc(C5CCN(C6COC6)CC5)c4)nn3)nc2)o1` [Compound 4013, 2-(difluoromethyl)-5-(6-((4-(3-(1-(oxetan-3-yl)piperidin-4-yl)phenyl)-1H-1,2,3-triazol-1-yl)methyl)pyridin-3-yl)-1,3,4-oxadiazole], in assay [1], the “Velocity distribution (%)” value is “** (**, 50%˜100%)”. Besides, in assay [2], the “HDAC6 selectivity (fold)” value is 2183 fold and the IC50 is 22.9 nM. Besides, the IC50 in assay [3] was over 50 µM.
Consider `CCN1CCc2cc(-c3cn(Cc4ccc(-c5nnc(C(F)F)o5)cn4)nn3)ccc2C1` [Compound 4052, 2-(difluoromethyl)-5-(6-((4-(2-ethyl-1,2,3,4-tetrahydroisoquinolin-6-yl)-1H-1,2,3-triazol-1-yl)methyl)pyridin-3-yl)-1,3,4-oxadiazole], for which the “Velocity distribution (%)” value in assay [1] is listed as “** (**, 50%˜100%)”. The “HDAC6 selectivity (fold)” value in assay [2] turned out to be 1128 fold. Moreover, the values for the IC50 in assay [2] and in assay [3] were 44.3 nM and over 50 µM, respectively.
In the case of `FC(F)c1nnc(-c2ccc(Cn3cc(-c4ccc5c(c4)CCN(C4COC4)C5)nn3)nc2)o1` [Compound 4055, 2-(difluoromethyl)-5-(6-((4-(2-(oxetan-3-yl)-1,2,3,4-tetrahydroisoquinolin-6-yl)-1H-1,2,3-triazol-1-yl)methyl)pyridin-3-yl)-1,3,4-oxadiazole], the “Velocity distribution (%)” value in assay [1] is on record as “* (*, 0%˜50%)”. Besides, in assay [2], the “HDAC6 selectivity (fold)” value stood at 868 fold. Besides, the values for the IC50 in assay [2] and in assay [3] were 57.6 nM and over 50 µM, respectively.
On to `CC(C)N1CCN(c2cccc(-c3cn(Cc4ccc(-c5nnc(C(F)F)o5)cn4)nn3)c2)CC1` [Compound 4070, 2-(difluoromethyl)-5-(6-((4-(3-(4-isopropylpiperazin-1-yl)phenyl)-1H-1,2,3-triazol-1-yl)methyl)pyridin-3-yl)-1,3,4-oxadiazole], for which, in assay [1], the “Velocity distribution (%)” value was “** (**, 50%˜100%)”. Also, in assay [2], the “HDAC6 selectivity (fold)” value is on record as 1298 fold and the IC50 was 38.5 nM. For the same compound, in assay [3], the IC50 was over 50 µM.
For `FC(F)c1nnc(-c2ccc(Cn3cc(-c4ccc5[nH]ccc5c4)nn3)nc2)o1` [Compound 4072, 2-(6-((4-(1H-indol-5-yl)-1H-1,2,3-triazol-1-yl)methyl)pyridin-3-yl)-5-(difluoromethyl)-1,3,4-oxadiazole], in assay [1], the “Velocity distribution (%)” value is “** (**, 50%˜100%)”. Moreover, in assay [2], the “HDAC6 selectivity (fold)” value stood at 4854 fold and the IC50 was 10.3 nM. Also, in assay [3], the IC50 was over 50 µM.
Turning to `FC(F)c1nnc(-c2ccc(Cn3cc(-c4ccc5occc5c4)nn3)nc2)o1` [Compound 4073, 2-(6-((4-(benzofuran-5-yl)-1H-1,2,3-triazol-1-yl)methyl)pyridin-3-yl)-5-(difluoromethyl)-1,3,4-oxadiazole], in assay [1], the “Velocity distribution (%)” value was “** (**, 50%˜100%)”. In assay [2], the “HDAC6 selectivity (fold)” value is 822 fold and the IC50 was 60.8 nM. Also, the IC50 in assay [3] was over 50 µM.
As to `FC(F)c1nnc(-c2ccc(Cn3cc(-c4cccc(-n5ccnc5)c4)nn3)nc2)o1` [Compound 4075, 2-(6-((4-(3-(1H-imidazol-1-yl)phenyl)-1H-1,2,3-triazol-1-yl)methyl)pyridin-3-yl)-5-(difluoromethyl)-1,3,4-oxadiazole], the “Velocity distribution (%)” value in assay [1] is listed as “*** (***, >100%)”. Also, in assay [2], the “HDAC6 selectivity (fold)” value stood at 3048 fold and the IC50 is 16.4 nM. The IC50 in assay [3] was over 50 µM.
Consider `FC(F)c1nnc(-c2ccc(Cn3cc(-c4ccc5cc[nH]c5c4)nn3)cc2)o1` [Compound 4076, 2-(4-((4-(1H-indol-6-yl)-1H-1,2,3-triazol-1-yl)methyl)phenyl)-5-(difluoromethyl)-1,3,4-oxadiazole], for which the “Velocity distribution (%)” value in assay [1] is given as “*** (***, >100%)”. For the same compound, the “HDAC6 selectivity (fold)” value in assay [2] was determined as 739 fold. In addition, the results for the IC50 in assay [2] and in assay [3] were 67.6 nM and over 50 µM, respectively.

Source of the values: US20230257372A1 (CHONG KUN DANG PHARMACEUTICAL CORP., priority 2020, published 2023).
